Data as given in patent US8309685B2 (Celgene Avilomics Research, Inc., priority 2007, dated 2012).
Where two headings read alike, the source gives them in different places.

Key:
[1] = system: HCV RNA replicon in cell line ET (luc-ubi-neo/ET), human Huh7 hepatoma; test: Method A: HCV RNA replicon antiviral assay (luciferase, ET cell line); format: cell-based, Hepatitis C virus; conditions: Hepatitis C virus, Huh-7, assay described in Example 22; for IC50: read-out: Replicon (IC50)
Experimental: The compounds were assayed to evaluate the antiviral activity and cytotoxicity of compounds in vitro using HCV RNA replicons. This assay used the cell line ET (luc-ubi-neo/ET), which is a human Huh7 hepatoma cell line that contains an HCV RNA replicon with a stable luciferase (Luc) reporter and three cell culture-adaptive mutations. […]
The ET cell line was grown in Dulbecco's modified essential media (DMEM), 10% fetal bovine serum (FBS), 1% penicillin-streptomycin (pen-strep), 1% glutamine, 250 μg/ml G418 in a 5% CO2 incubator at 37° C. All cell culture reagents were obtained from Mediatech (Manassas, Va.). Cells were trypsinized (1% trypsin:EDTA) and plated out at 5×10^3 cells/well in white 96-well assay plates (Costar) dedicated to cell number (cytotoxicity) or antiviral activity assessments. Drugs were added at six 3-fold concentrations each and the assay was run in DMEM, 5% FBS, 1% pen-strep, 1% glutamine. Human interferon alpha-2b (PBL Biolabs, New Brunswick, N.J.) was included in each run as a positive control compound. Cells were processed 72 hr post drug addition when the cells are still subconfluent. Antiviral activity was measured by analyzing replicon-derived luciferase activity using the Steady-Glo Luciferase Assay System (Promega, Madison, Wis.) according to manufacturer's instruction. The number of cells in each well was determined by CytoTox-1 reagent (Promega). Compound profile was derived by calculating applicable EC50 (effective concentration inhibiting virus replication by 50%), EC90 (effective concentration inhibiting virus replication by 90%), IC50 (concentration decreasing cell viability by 50%) and SI50 (selective index: […]) values.

[2] = molecular target: T1, wild type HCV NS3/4A 1b protease enzyme (Hepatitis C virus genotype 1b, UniProt P26663); test: HCV Protease FRET Assay (IC50_APP), wild type; format: biochemical
T1 construct: 10× stocks of NS3/4A protease enzyme from Bioenza (Mountain View, Calif.); purchased Bioenza (Mountain View, Calif.)
Experimental: (§1) HCV Protease FRET Assay for WT and Mutated NS3/4A 1b Enzymes (IC50—APP).
(§2) The following protocol was used to generate “apparent” IC50 (IC50—APP) values as depicted in Table 6, below. […] 5 μL of each enzyme were added to Corning (#3575) 384-well, black, microtiter plates (Corning, N.Y.) after spotting a 0.5 μL volume of 50% DMSO and serially diluted compounds prepared in 50% DMSO. Protease reactions were immediately started after enzyme addition with the addition of 45 μL of the FRET substrate and monitored for 60-90 minutes at λex485/λem520 in a Synergy^4 plate reader from BioTek (Winooski, Vt.). At the conclusion of each assay, progress curves from each well were examined for linear reaction kinetics and fit statistics (R^2, 95% confidence intervals, absolute sum of squares).
(§3) The compound numbers correspond to the compound numbers in Table 3. […] ;

[3] = molecular target: T2, A156T mutant of the HCV NS3/4A 1b protease enzyme (Hepatitis C virus genotype 1b, UniProt P26663, A1182T); test: HCV Protease FRET Assay (IC50_APP), A156T mutant; format: biochemical; conditions: apparent IC50, A156T mutant; read-out: IC50_APP, HCV A156T
T2 construct: 10× stocks of NS3/4A protease enzyme from Bioenza (Mountain View, Calif.); purchased Bioenza (Mountain View, Calif.)
Experimental: as §1, §2, §3

[4] = molecular target: T3, D168A mutant of the HCV NS3/4A 1b protease enzyme (Hepatitis C virus genotype 1b, UniProt P26663, D1194A); test: HCV Protease FRET Assay (IC50_APP), D168A mutant; format: biochemical; conditions: apparent IC50, D168A mutant; read-out: IC50_APP, HCV D168A
T3 construct: 10× stocks of NS3/4A protease enzyme from Bioenza (Mountain View, Calif.); purchased Bioenza (Mountain View, Calif.)
Experimental: as §1, §2, §3

[5] = read-out: IC50_APP, WT, apparent IC50, wild type NS3/4A 1b

Row | SMILES | IC90 [1] [nM] | IC50 [1] [nM] | IC50 [2, 5] [nM] | IC50 [3] [nM] | IC50 [4] [nM] | IC50 [2] [nM]
1 | C#Cc1ccc(S(=O)(=O)NC(=O)[C@@]2(NC(=O)[C@@H]3C[C@@H](Oc4cc(-c5ccccc5)nc5cc(OC)ccc45)CN3C(=O)[C@H](CNC(=O)C=C)NC(=O)OC(C)(C)C)C[C@H]2C=C)cc1 [Compound I-61, t-butyl-(S)-3-acrylamido-1-((2S,4R)-2-((1R,2S)-1-(4-ethynylphenylsulfonylcarbamoyl)-2-vinylcyclopropylcarbamoyl)-4-(7-methoxy-2-phenylquinolin-4-yloxy)pyrrolidin-1-yl)-1-oxopropan-2-ylcarbamate] | 1000 to 10000 | 100 to 1000 | 10 to 100 | 1000 to 10000 | 1000 to 10000 | –
2 | C=C[C@@H]1C[C@]1(NC(=O)[C@@H]1CC(Oc2cc(-c3ccccc3)nc3cc(OC)ccc23)CN1C(=O)OC(C)(C)C)C(=O)NS(=O)(=O)C1CC1 (some centres unmarked) [Compound I-62] | 100 to 1000 | 10 to 100 | < 10 | 100 to 1000 | 1000 to 10000 | –
3 | C=CC(=O)O[C@H](C)[C@H](NC(=O)OC(C)(C)C)C(=O)N1C[C@H](Oc2cc(-c3ccccc3)nc3cc(OC)ccc23)C[C@H]1C(=O)N[C@]1(C(=O)NS(=O)(=O)C2CC2)C[C@H]1C=C [Compound I-64, t-butyl-(2S,3R)-3-acryloxy-1-((2S,4R)-2-((1R,2S)-1-(cyclopropylsulfonylcarbamoyl)-2-vinylcyclopropylcarbamoyl)-4-(7-methoxy-2-phenylquinolin-4-yloxy)pyrrolidin-1-yl)-1-oxobutan-2-ylcarbamate] | 100 to 1000 | 100 to 1000 | < 10 | 10 to 100 | 10 to 100 | –
4 | C=CC(=O)N[C@@H](C(=O)N1C[C@H](Oc2cc(-c3ccccc3)nc3cc(OC)ccc23)C[C@H]1C(=O)N[C@]1(C(=O)NS(=O)(=O)C2CC2)C[C@H]1C=C)c1ccccc1 [Compound I-66, (2S,4R)-1-((R)-2-acrylamido-phenylacetyl)-N-((1R,2S)-1-(cyclopropylsulfonylcarbamoyl)-2-vinylcyclopropyl)-4-(7-methoxy-2-phenylquinolin-4-yloxy)pyrrolidine-2-carboxamide] | 100 to 1000 | 10 to 100 | < 10 | 100 to 1000 | 100 to 1000 | –
5 | C=C[C@@H]1C[C@]1(NC(=O)[C@@H]1C[C@@H](Oc2cc(-c3ccccc3)nc3cc(OC)ccc23)CN1C(=O)[C@H](CCC(=O)N[C@@H]1C(=O)O[C@@H]1C)NC(=O)OC(C)(C)C)C(=O)NS(=O)(=O)C1CC1 [Compound I-67, t-butyl-(2S)-1-((2S,4R)-2-((1R,2S)-1-(cyclopropylsulfonylcarbamoyl)-2-vinylcyclopropylcarbamoyl)-4-(7-methoxy-2-phenylquinolin-4-yloxy)pyrrolidin-1-yl)-5-((2R,3S)-2-methyl-4-oxooxetan-3-ylamino)-1,5-dioxopentan-2-ylcarbamate] | 100 to 1000 | 10 to 100 | < 10 | < 10 | < 10 | –
6 | C=C[C@@H]1C[C@]1(NC(=O)[C@@H]1C[C@@H](Oc2cc(-c3ccccc3)nc3cc(OC)ccc23)CN1C(=O)[C@H](CCC(=O)C=C(C)C)NC(=O)OC(C)(C)C)C(=O)NS(=O)(=O)C1CC1 [Compound I-68, tert-butyl-(S)-1-((2S,4R)-2-((1R,2S)-1-(cyclopropylsulfonylcarbamoyl)-2-vinylcyclopropylcarbamoyl)-4-(7-methoxy-2-phenylquinolin-4-yloxy)pyrrolidin-1-yl)-7-methyl-1,5-dioxooct-6-en-2-ylcarbamate] | 10 to 100 | < 10 | < 10 | 100 to 1000 | 100 to 1000 | –
7 | C=C[C@@H]1C[C@]1(NC(=O)[C@@H]1C[C@@H](Oc2cc(-c3ccccc3)nc3cc(OC)ccc23)CN1C(=O)[C@H](CCC(=O)N1CCC1=O)NC(=O)OC(C)(C)C)C(=O)NS(=O)(=O)C1CC1 [Compound I-70, t-butyl-(2S)-1-((2S,4R)-2-((1R,2S)-1-(cyclopropylsulfonylcarbamoyl)-2-vinylcyclopropylcarbamoyl)-4-(7-methoxy-2-phenylquinolin-4-yloxy)pyrrolidin-1-yl)-5-(2-oxoazetidinyl)-1,5-dioxopentan-2-ylcarbamate] | 100 to 1000 | 100 to 1000 | < 10 | < 10 | < 10 | –
8 | C#CCOC(=O)N[C@@H](CN(C)C(=O)CCCl)C(=O)N1C[C@H](Oc2cc(-c3ccccc3)nc3cc(OC)ccc23)C[C@H]1C(=O)N[C@]1(C(=O)NS(=O)(=O)C2CC2)C[C@H]1C=C [Compound I-71] | 100 to 1000 | 100 to 1000 | < 10 | 100 to 1000 | 100 to 1000 | –
9 | C=CC(=O)N(C)C[C@H](NC(=O)OC1CCCC1)C(=O)N1C[C@H](Oc2cc(-c3ccccc3)nc3cc(OC)ccc23)C[C@H]1C(=O)N[C@]1(C(=O)NS(=O)(=O)C2CC2)C[C@H]1C=C [Compound I-72] | 10 to 100 | < 10 | < 10 | 100 to 1000 | 100 to 1000 | –
10 | C=CC(=O)N(C)C[C@H](NC(=O)OC(C)(C)C)C(=O)N1C[C@H](Oc2nccc3ccc(Br)cc23)C[C@H]1C(=O)N[C@]1(C(=O)NS(=O)(=O)C2CC2)C[C@H]1C=C [Compound I-84, tert-butyl-(S)-1-((2S,4R)-4-(7-bromoisoquinolin-1-yloxy)-2-((1R,2S)-1-(cyclopropylsulfonylcarbamoyl)-2-vinylcyclopropylcarbamoyl)pyrrolidin-1-yl)-3-(N-methylacrylamido)-1-oxopropan-2-ylcarbamate] | 100 to 1000 | 10 to 100 | < 10 | 100 to 1000 | 100 to 1000 | –
11 | C=CC(=O)N(C)CC[C@H](NC(=O)OC1CCCC1)C(=O)N1C[C@H](Oc2cc(-c3ccccc3)nc3cc(OC)ccc23)C[C@H]1C(=O)N[C@]1(C(=O)NS(=O)(=O)C2CC2)C[C@H]1C=C [Compound I-85, Cyclopentyl-(S)-1-((2S,4R)-2-((1R,2S)-1-(cyclopropylsulfonylcarbamoyl)-2-vinylcyclopropylcarbamoyl)-4-(7-methoxy-2-phenylquinolin-4-yloxy)pyrrolidin-1-yl)-4-(N-methylacrylamido)-1-oxobutan-2-ylcarbamate] | 10 to 100 | 10 to 100 | < 10 | 10 to 100 | 10 to 100 | –
12 | C=C[C@@H]1C[C@]1(NC(=O)[C@@H]1C[C@@H](Oc2nccc3ccccc23)CN1C(=O)[C@H](CCC(=O)C=C(C)C)NC(=O)OC(C)(C)C)C(=O)NS(=O)(=O)C1CC1 [Compound I-86, tert-butyl-(S)-1-((2S,4R)-2-((1R,2S)-1-(cyclopropylsulfonylcarbamoyl)-2-vinylcyclopropylcarbamoyl)-4-(isoquinolin-1-yloxy)pyrrolidin-1-yl)-7-methyl-1,5-dioxooct-6-en-2-ylcarbamate] | 10 to 100 | < 10 | < 10 | 100 to 1000 | 100 to 1000 | –
13 | C=C[C@@H]1C[C@]1(NC(=O)[C@@H]1C[C@@H](Oc2nccc3ccc(-c4cccs4)cc23)CN1C(=O)[C@H](CCC(=O)C=C(C)C)NC(=O)OC(C)(C)C)C(=O)NS(=O)(=O)C1CC1 [Compound I-87, tert-butyl-(S)-1-((2S,4R)-2-((1R,2S)-1-(cyclopropylsulfonylcarbamoyl)-2-vinylcyclopropylcarbamoyl)-4-(7-(thiophen-2-yl)isoquinolin-1-yloxy)pyrrolidin-1-yl)-7-methyl-1,5-dioxooct-6-en-2-ylcarbamate] | 10 to 100 | < 10 | – | 10 to 100 | 100 to 1000 | < 10
